Experimental data: patent publication US20260207576A1 (priority 2024, published 2026)

Molecular target: Stx2A1 (Escherichia phage 933W, UniProt P09385)
Format: biochemical, E. coli (STEC)
Conditions: read-out: IC50 against Stx2A1

Sequence of Stx2A1 (P09385 23-272 limits assumed): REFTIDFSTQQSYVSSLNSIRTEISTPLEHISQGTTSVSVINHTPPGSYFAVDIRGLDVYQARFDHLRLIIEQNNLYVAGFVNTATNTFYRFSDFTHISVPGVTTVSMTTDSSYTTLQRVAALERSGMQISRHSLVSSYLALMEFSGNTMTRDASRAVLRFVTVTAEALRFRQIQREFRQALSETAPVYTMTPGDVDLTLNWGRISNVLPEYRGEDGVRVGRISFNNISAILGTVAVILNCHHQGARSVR

For `CC1(C)Cc2cc(C(=O)O)sc2-c2ccccc21` [RU-NT-206, 5,5-Dimethyl-4,5-dihydronaphtho[1,2-b]thiophene-2-carboxylic acid], the IC50 was 83 ± 30 µM.
